Here are results for one compound from US11702440B2, “Pharmaceutical polymorphs of Molnupiravir” (OPTIMUS DRUGS (P) LTD, priority 2021, dated 2023).

Data set [1] concerns coronaviruses including SARS, MERS and SARS-CoV-2. As to conditions: cited from earlier work.
Data set [2] in a line: In-vitro dissolution study of Molnupiravir Capsules. In kind it is physicochemical. As to conditions: 900 ml 0.1 N HCl, paddle 50 RPM. As for the experimental part:
Dissolution study of test product Molnupiravir Capsules 200 mg, 400 mg 800 mg was performed in order to understand % dissolution in release dissolution media. The dissolution media used for the test is 900 ml of 0.1 NHCl at 50 RPM with paddle.

Data set [3] in a line: First-in-human phase 1 single and multiple ascending dose pharmacokinetics in healthy volunteers. In kind it is in vivo. How it is done:
Single and multiple doses of Molnupiravir were evaluated in this first-in-human, phase 1, […] randomized, double-blind, placebo-controlled study in healthy volunteers, which included […] evaluation of the effect of food on pharmacokinetics. Eligible subjects were randomized in a 3:1 ratio to either study drug or placebo in the single- and multiple-ascending-dose parts of the study. Each cohort comprised 8 subjects, with single oral doses of 50 to 1600 mg administered in the single-ascending-dose part and twice-daily (BID) […] doses of 50 to 800 mg administered for 5.5 days in the multiple-ascending-dose part. Subjects were followed for 14 days following completion of dosing for assessments of safety, tolerability, and pharmacokinetics. Subjects in the food-effect evaluation were randomized in a 1:1 ratio to either 200 mg Molnupiravir in the fed state followed by 200 mg Molnupiravir in the fasted state, or vice versa, with a 14-day washout period between doses. A capsule formulation was used in all parts of the study, with the exception of single ascending doses ≤800 mg, where an oral solution formulation was used.

Data set [4] concerns SARS-CoV-2. To be noted: found in March 2020; cited from earlier work.

Consider `CC(C)C(=O)OC[C@H]1O[C@@H](n2ccc(NO)nc2=O)[C@H](O)[C@@H]1O` [Molnupiravir], for which the activity against coronaviruses entry in data set [1] was “Activity has also been demonstrated”. Moreover, the “% Drug release of Molnupiravir” value was 85% in data set [2] (200 mg capsules, 5 min); 97% in data set [2] (200 mg capsules, 10 min); 97% in data set [2] (200 mg capsules, 15 min); 102% in data set [2] (200 mg capsules, 20 min); 103% in data set [2] (200 mg capsules, 30 min); 102% in data set [2] (200 mg capsules, 45 min). For the same compound, the “% Drug release of Molnupiravir” value came to 86% in data set [2] (400 mg capsules, 5 min); 90% in data set [2] (400 mg capsules, 10 min); 93% in data set [2] (400 mg capsules, 15 min); 97% in data set [2] (400 mg capsules, 20 min); 97% in data set [2] (400 mg capsules, 30 min); 97% in data set [2] (400 mg capsules, 45 min). Besides, the “% Drug release of Molnupiravir” value in data set [2] (800 mg capsules, 5 min) was determined as 84%; in data set [2] (800 mg capsules, 10 min) it was 95%; in data set [2] (800 mg capsules, 15 min), 97%; in data set [2] (800 mg capsules, 20 min), 99%; in data set [2] (800 mg capsules, 30 min), 101%; in data set [2] (800 mg capsules, 45 min), 101%. The “mean AUCinf increase with dose” value in data set [3] (Day 1, power model, oral, lower bound of 90% CI slightly above unity) was “approximately dose-proportional”. The “mean Cmax increase with dose” value in data set [3] (Day 1, power model, oral, upper bound of 90% CI slightly below unity) was “approximately dose-proportional”; in data set [3] (Day 6, BID oral dosing, 90% CI containing unity), “dose proportional”. In data set [3] (Day 6, BID oral dosing, lower bound of 90% CI slightly above unity), the “mean AUCτ increase with dose” value is on record as “approximately dose-proportional”. Also, in data set [4], the “activity against SARS-CoV-2” value is on record as “active”.
